Each block holds one molecule with its values, some of them ahead of it.
Columns and labels:
[1] = molecular target: T1, gp130-D1-D3 (Homo sapiens, UniProt P40189); test: SPR direct binding to immobilized gp130-D1-D3 (CM5 chip); details: for Kd: SPR, gp130-D1-D3, linear regression at low concentrations, 25% Rmax; for ΔGexp: experimental binding energy from SPR KD
T1 construct: residues 1-301, the numbering system is based on PDB 3L5H, which is the mature form of gp130; tandem TFH purification tag (includes FLAG, as purified on anti-FLAG M2 agarose) (C); made in house; host or cells: Hi5 insect cells (baculovirus; virus generated in sf9)
T1 sequence (P40189 23-323): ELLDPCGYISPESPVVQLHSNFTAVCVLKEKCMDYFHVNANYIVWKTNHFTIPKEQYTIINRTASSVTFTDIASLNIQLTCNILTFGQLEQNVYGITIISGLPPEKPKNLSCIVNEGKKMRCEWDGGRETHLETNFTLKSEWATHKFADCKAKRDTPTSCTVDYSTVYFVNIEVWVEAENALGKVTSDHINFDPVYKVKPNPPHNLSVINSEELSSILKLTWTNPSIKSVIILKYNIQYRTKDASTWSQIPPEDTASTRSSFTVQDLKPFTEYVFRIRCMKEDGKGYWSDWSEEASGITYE

[2] = molecular target: Extracellular Domain of gp130 (Homo sapiens, UniProt P40189); details: literature value; read-out: reported binding affinity; cited from earlier work
[3] = system: SUM159 breast cancer cell line; test: MTT cell viability assay, SUM159; assay type: cell-based, human; details: for inhibitory effect compared to parent compound LLM4: SUM159, 25 μM, 48 hours
Method: (§1) Human breast cancer cell lines MCF7, MDA-MB-231 and SUM159 were maintained in Dulbecco's modified Eagle medium (DMEM). Human pancreatic cancer cell line BxPC-3 was maintained in RPMI 1640 medium. Human pancreatic cancer cell line Capan-1 was maintained in Iscove's Modified Dulbecco's Medium (IMEM). All media were supplemented with 10% FBS and 1% penicillin/streptomycin, and cells were incubated in a humidified 37° C. incubator with 5% CO2. PE/CA-PJ49 cell line was purchased from external sources and maintained according to manufacturer's protocol.
(§2) Cell viability was evaluated by using the MTT assay in triple replicates in one experiment and repeated for three times. Cancer cells were seeded in 96-well plates at a density of 3,000 cells per well. The cells were incubated at 37° C. for a period of 24 hours. Escalating concentrations of IL-6/gp130 inhibitors were added in triplicate to the plates in the presence of 10% FBS. After incubation for 48 or 72 hours, a stock solution of MTT (0.5 mg/ml) was then added to each well containing the treated cells, followed by incubation at 37° C. for 3 h. After removal of medium, the MTT dye was dissolved with spectrophotometric grade DMSO and the absorbance was read at 570 nm. The IC50 value is determined by interpolation based on the absorbance value halfway between positive and negative controls.

[4] = system: BxPC-3 pancreatic cancer cell line; test: MTT cell viability assay, BxPC-3; assay type: cell-based, human; details: for IC50: Homo sapiens, BxPC-3, Table 7; for inhibitory effect compared to parent compound LLM4: BxPC-3, 25 μM, 48 hours
Method: as §1
as §2, with “controls. In the experiment of LLM4 showing higher efficacy in cancer cells with higher levels of IL-6, instead of using medium with 10% FBS, DMEM with 0% FBS was used in order to eliminate the influence of trace amounts of growth factors and cytokines in FBS.” for “controls.”

[5] = system: PE/CA-PJ49 cell line; test: Inhibitory activity in PTPRD mutant cell line PE/CA-PJ49; assay type: cell-based; details: PE/CA-PJ49, 48 h
Method: as §1
as §2, with “controls. In the experiment of LLM4 showing higher efficacy in cancer cells with higher levels of IL-6, instead of using medium with 10% FBS, DMEM with 0% FBS was used in order to eliminate the influence of trace amounts of growth factors and cytokines in FBS.” for “controls.”
Protein tyrosine […] receptor type D (PTPRD) is reported to serve as a tumor suppressor in various human cancers [Peyser et. al, PLoS One (2015) 10(8)]. PTPRD mutation is also known to be associated with increased STAT3 expression [Peyser et. al, PLoS One (2015) 10(8)]. Table 8 captures the inhibitory activities of various compounds in the PTPRD mutant cell line, PE/CA-PJ49.

[6] = system: multiple myeloma cell line U266; test: Cell viability assay, U266; assay type: cell-based, human
Method: as §2, with “controls. In the experiment of LLM4 showing higher efficacy in cancer cells with higher levels of IL-6, instead of using medium with 10% FBS, DMEM with 0% FBS was used in order to eliminate the influence of trace amounts of growth factors and cytokines in FBS.” for “controls.”
It was reported in multiple myeloma cell line U266 that IL-6 is also elevated and of great importance for cancer progression [Jernberg W, Pettersson M, Carlsson M, et al. Increase in interleukin 6 (IL-6) and IL-6 receptor expression in a human multiple myeloma cell line, U-266, during long-term in vitro culture and the development of a possible autocrine IL-6 loop 1. Leukemia. 1992, 4, 310-318]. These novel IL-6/gp130 inhibitors were tested in U266 cells at a concentration of 25 μM for an incubation time of 48 and 72 hours. MDL16 and LLM4 were used as control compounds.

[7] = system: IL-6 induced STAT3 phosphorylation; test: Western blot, IL-6 induced STAT3 phosphorylation in MCF7; assay type: cell-based, human; details: MCF7, 1-4 μM, 5 h, IL-6 50 ng/ml
Method: Cells were harvested and lysed in cold radioimmunoprecipitation assay (RIPA) lysis buffer containing proteasome inhibitor cocktail and phosphatase inhibitor cocktail. The protein concentrations were determined using the BCA Protein Assay kit. After adding the loading buffer and boiling at 95° C. for 10 minutes, equivalent amounts of proteins were loaded on and separated by SDS-PAGE, and then were transferred to PVDF membranes. Membranes were probed with primary antibodies (1:1000) against phospho-STAT3 (Tyr705), STAT3, phospho-STAT1 (Tyr701), STAT1, phospho-STAT6 (Tyr 641), STAT6, and GAPDH, respectively, and horseradish peroxidase (HRP)-conjugated secondary antibody (1:10000) (Cell Signaling Technology, Beverly, Mass.). Membranes were analyzed using Enhanced Chemiluminescence Plus reagents and either scanned with the Storm Scanner (Amersham Pharmacia Biotech, Inc., Piscataway, N.J.) or imaged with ChemiDoc MP imaging system (Bio-Rad, Hercules, Calif.). For cytokine induction of STAT3 phosphorylation, MCF-7 breast cancer cells were seeded in 10 cm plates (1 million cells per plate) and allowed to adhere overnight followed by serum-starvation. […] After designated hours, LLM-418 treated and untreated cells were stimulated by IL-6, LIF, and OSM (50 ng/mL). The cells were harvested after 30 minutes and analyzed by Western blot.
MCF7 breast cancer cells were seeded in 10 cm plates (1 million cells per plate) and allowed to adhere overnight. The following day, the cells were serum-starved. The cells were then left untreated or treated with LLM4 (5-20 μM). After designated hours, the LLM4 treated and untreated cells were stimulated by IL-6, LIF, OSM, CNTF, CT-1, IL-11, IL-4 or INF-γ (50 ng/ml). The cells were harvested after 30 minutes and analyzed by western blotting.

[8] = system: MCF7 breast cancer cell line; test: MTT cell viability assay, MCF7; assay type: cell-based, human; details: MCF7 (low IL-6), 48 h, 0% FBS medium
Method: as §1
as §2, with “Escalating concentrations of IL-6/gp130 inhibitors were added in triplicate to the plates in the presence of 10% FBS.” left out, “controls. […]” for “controls.”

[9] = system: MDA-MB-231 breast cancer cell line; test: MTT cell viability assay, MDA-MB-231; assay type: cell-based, human; details: MDA-MB-231 (medium IL-6), 48 h, 0% FBS medium
Method: as §1
as §2, with “Escalating concentrations of IL-6/gp130 inhibitors were added in triplicate to the plates in the presence of 10% FBS.” left out, “controls. […]” for “controls.”

[10] = system: SUM159 breast cancer cell line; test: MTT cell viability assay, SUM159; assay type: cell-based, human; details: SUM159 (high IL-6), 48 h, 0% FBS medium
[11] = SUM159 human breast cancer cell line, MTT

Extracellular Domain of gp130, sequence (P40189 23-619 limits assumed): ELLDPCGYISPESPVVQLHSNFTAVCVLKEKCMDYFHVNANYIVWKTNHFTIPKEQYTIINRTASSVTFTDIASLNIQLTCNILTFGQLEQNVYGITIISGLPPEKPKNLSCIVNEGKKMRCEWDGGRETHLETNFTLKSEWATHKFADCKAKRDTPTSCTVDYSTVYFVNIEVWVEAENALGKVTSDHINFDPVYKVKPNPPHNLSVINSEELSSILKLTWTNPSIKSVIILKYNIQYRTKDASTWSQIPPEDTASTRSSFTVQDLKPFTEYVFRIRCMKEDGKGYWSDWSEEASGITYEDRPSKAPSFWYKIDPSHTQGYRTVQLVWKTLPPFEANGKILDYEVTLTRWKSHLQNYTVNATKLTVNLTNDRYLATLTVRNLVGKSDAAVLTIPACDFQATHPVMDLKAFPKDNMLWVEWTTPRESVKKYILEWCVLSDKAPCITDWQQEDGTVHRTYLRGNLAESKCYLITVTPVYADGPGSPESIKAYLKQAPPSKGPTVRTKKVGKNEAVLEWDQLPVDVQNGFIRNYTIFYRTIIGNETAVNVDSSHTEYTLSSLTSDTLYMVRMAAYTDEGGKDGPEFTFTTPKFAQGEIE

Kd [1]: 330 µM
ΔGexp [1]: -4.75 kcal/mol
SMILES: CCCCC1=C(C)C(=O)[C@](C)(CN2c3ccccc3[C@]3(O)CCOC23)C1=O (stereo partly drawn) [MDL-A, Madindoline A, reference compound]
Kd [2]: 288 µM

IC50 ([3]; Homo sapiens, SUM159, Table 7): 4.6 µM
IC50 [4]: 1.8 µM
SMILES: Cc1c(-c2ccc(O)cc2)n(Cc2ccc(OCCN3CCCCCC3)cc2)c2ccc(O)cc12 [Bazedoxifene, reference compound]

SMILES: O=C(Nc1cc(F)ccc1-n1cccc1)c1ccc(OCCCCc2ccccc2)cc1 [LLM7, N-(5-fluoro-2-(1H-pyrrol-1-yl)phenyl)-4-(4-phenylbutoxy)benzamide]
IC50 ([3]; Homo sapiens, SUM159, SUM159 human breast cancer cell line, MTT): 58.7 ± 6.3 µM

SMILES: O=C(Nc1ccccc1-c1ccn[nH]1)c1ccc(OCCCN2CCCCC2)cc1 [LLM417, N-(2-(1H-pyrazol-5-yl)phenyl)-4-(3-(piperidin-1-yl)propoxy)benzamide]
inhibitory effect compared to parent compound LLM4 [3]: comparable or slightly better at inhibition
inhibitory effect compared to parent compound LLM4 [4]: comparable or slightly better at inhibition

SMILES: CN(C)C(=O)Oc1cccc2c1C(=O)c1cccc(S(N)(=O)=O)c1C2=O [LLL12B]
IC50 [5]: 0.0159 ± 0.00371 µM

IC50 ([3]; Homo sapiens, SUM159, SUM159, Table 7): 14 µM
IC50 [4]: 13 µM
IC50 ([6]; Homo sapiens, U-266, U266, 72 h): 5.4 µM
Kd [1]: 21.6 µM
ΔGexp [1]: -6.36 kcal/mol
SMILES: O=C(Nc1cccc(-c2ccn[nH]2)c1)c1ccc(OCCCN2CCCCC2)cc1 [LLM41, N-(3-(1H-pyrazol-5-yl)phenyl)-4-(3-(piperidin-1-yl)propoxy)benzamide]
inhibitory effect compared to parent compound LLM4 [3]: comparable or slightly better at inhibition
inhibitory effect compared to parent compound LLM4 [4]: comparable or slightly better at inhibition
inhibitory effect compared to parent compound LLM4 ([6]; U266, 25 μM, 48 and 72 hours): greater inhibitory effects
inhibition of IL-6 induced STAT3 phosphorylation [7]: inhibited STAT3 phosphorylation stimulated by IL-6 in MCF7 cells in a dose dependent manner

SMILES: O=C(Nc1cccc(-c2ccn[nH]2)c1)c1cccc(OCCN2CCCCC2)c1 [LLM46, N-(3-(1H-pyrazol-5-yl)phenyl)-3-(2-(piperidin-1-yl)ethoxy)benzamide]
inhibitory effect compared to parent compound LLM4 [3]: comparable or slightly better at inhibition
inhibitory effect compared to parent compound LLM4 [4]: comparable or slightly better at inhibition

IC50 [5]: 0.019 ± 0.00283 µM
SMILES: NS(=O)(=O)c1cccc2c1C(=O)c1cccc(O)c1C2=O [LLL12]

IC50 [8]: 4.7 µM
IC50 [9]: 1.22 µM
IC50 [5]: 0.691 ± 0.064 µM
IC50 [10]: 1.08 µM
SMILES: O=C(NNc1nc2cc(F)ccc2n2cccc12)c1cnccn1 [SC144, reference compound]

SMILES: O=C(Nc1cc(F)ccc1-n1cccc1)c1ccc(OCCN2CCCCC2)cc1 [LLM3, N-(5-fluoro-2-(1H-pyrrol-1-yl)phenyl)-4-(2-(piperidin-1-yl)ethoxy)benzamide]
IC50 [3, 11]: 31.4 ± 4.7 µM

SMILES: O=C(Nc1cc(F)ccc1-n1cccc1)c1ccc(OCCc2ccccc2)cc1 [LLM5, N-(5-fluoro-2-(1H-pyrrol-1-yl)phenyl)-4-phenethoxybenzamide]
IC50 [3, 11]: 64.4 ± 6.9 µM

Reference: patent US11530181B2, “IL-6 inhibitors and methods of treatment” (University of Florida Research Foundation, Incorporated, priority 2018, dated 2022)
